Results published in patent publication US20140206678A1, “INHIBITORS OF MTOR KINASE AS ANTI -VIRAL AGENT” (KADMON CORPORATION, LLC, priority 2011, published 2014).

Assays:
[1] = test system: HCMV proteins IE1, pUL44, pUL99; assay: Western blot of HCMV proteins in infected fibroblasts; format: cell-based, human cytomegalovirus; conditions: 6 to 96 hpi; rapamycin 20 nM, Torin1 250 nM; 3 PFU/cell
Description: (§1) FIG. 2. […] Serum-starved confluent fibroblasts were infected with HCMV at a multiplicity of 3 PFU/cell. […] Control cultures received the vehicle in which Torin1 was dissolved (NT). At 2 hpi cells were harvested, and cell-associated viral DNA was quantified by real-time PCR analysis. Error bars represent the standard errors of the means from two independent experiments performed in duplicate. […] The level of IE1 was determined at 6 hpi by a Western blot assay using an IE1-specific monoclonal antibody. The image is representative of two independent experiments. […] The expression of a GFP marker gene present in the viral genome was monitored at 24 h after infection in the presence or absence of drug.
(§2) FIG. 3. […] Cells were harvested at the indicated times, and the accumulation of the indicated proteins was analyzed by Western blotting. […] At the indicated times DNA was isolated, and viral DNA was quantified by qPCR. Equivalent amounts of DNA were analyzed for each sample, and the results are normalized to the level of actin DNA per sample. […] At the indicated times the amount of UL99 RNA was determined by qPCR, and the results are normalized to the amount of actin RNA in each sample. […]
Antibodies to pUL99 have been described previously (Silva, et al. J. Virol. (2003) 77:10594-10605). In addition, accumulation of HCMV DNA was monitored following infection using the methods described above.

cells = conditions: concentrations of up to 500 nM; previous reports; cited from earlier work
[2] = test system: mTORC1 targets (4EBP1, rpS6); assay: Phosphorylation of mTORC1 targets in HCMV-infected fibroblasts (Western blot); format: cell-based, human; conditions: rapamycin 20 nM, Torin1 250 nM
HSV-1 = HSV-1 replication in MEFs, TCID50; format: cell-based, herpes simplex virus type 1; conditions: 72 hpi
γHV68 = γHV68 replication in MEFs, TCID50; format: cell-based, murine gammaherpesvirus 68; conditions: 6 days post infection, rapamycin 20 nM, Torin1 250 nM
MCMV = MCMV replication in mouse embryo fibroblasts, TCID50; format: cell-based, murine cytomegalovirus; conditions: Torin1 250 nM
eIF4F complex = assay: Cap-binding (eIF4F) complex in MCMV-infected MEFs, m7G-Sepharose; format: cell-based, mouse; conditions: Torin1 250 nM, 48 hpi
Description: FIG. 7. […] At 6 days post infection the amount of MCMV in cell-free supernatants was determined by the TCID50 method. The error bars represent the standard errors of the means from three independent experiments, each performed in duplicate. […] At 48 hpi equal amounts of protein from cell lysates were incubated with m^7G-Sepharose. The presence of eIF4F complex components bound by the cap analog was determined by Western blotting. The results are representative of two independent experiments.

HCMV DNA = assay: HCMV viral DNA in infected fibroblasts by qPCR; format: cell-based, human cytomegalovirus
Description: as §1, §2
Briefly, primary human fibroblasts were infected with BADinGFP at a multiplicity of 0.05 PFU/cell. […] For each sample, DNA was quantified by using a NanoDrop spectrophotometer (Thermo Scientific). […]

CCC(=O)N1CCN(c2ccc(-n3c(=O)ccc4cnc5ccc(-c6cnc7ccccc7c6)cc5c43)cc2C(F)(F)F)CC1 [Torin1]
accumulation of immediate-early protein IE1 [1]: to a limited extent | accumulation of late protein pUL99 [1]: dramatically reduced | cell killing (cells): does not kill cells | phosphorylation of 4EBP1 during HCMV infection [2]: substantially blocked | induction of rpS6 phosphorylation during HCMV infection ([2]; 48 hpi): markedly inhibited | HSV-1 replication (HSV-1; MEFs, rapamycin 20 nM, Torin1 250 nM, 0.05 PFU/cell): inhibited | production of HSV-1 (HSV-1; cells lacking 4EBP1): failed to inhibit | γHV68 replication (γHV68): inhibited | MCMV replication (MCMV; 4EBP1-null MEFs, rapamycin 20 nM, 6 days post infection): no longer capable of inhibiting | MCMV replication (MCMV; Akt1/Akt2-null MEFs): Torin-sensitive | MCMV replication (MCMV; Rictor-null MEFs, 6 days post infection): effectively inhibited | MCMV replication (MCMV; wild-type MEFs, rapamycin 20 nM, 0.05 PFU/cell): inhibited | formation of the eIF4F complex (eIF4F complex; 4EBP1-null cells): no such effect was observed | formation of the eIF4F complex (eIF4F complex; control cells): inhibited the formation | level of cell-associated viral DNA (HCMV DNA; 2 hpi, 250 nM, pretreated 24 h or after adsorption, 3 PFU/cell): not influenced | reduction of viral DNA accumulation (HCMV DNA; 96 hpi, Torin1 250 nM, 0.05 PFU/cell): 150 fold
